Assay results as given in patent publication US20250313574A1, “SIALIC ACID DERIVATIVES AND METHODS OF USING SAME” (EISAI R&D MANAGEMENT CO., LTD., priority 2022, published 2025).
Read-outs that look alike come from different tables or passages of the source.

Key:
[1] = rcm bond, toluene
[2] = biological target: Recombinant Human Siglec-3/CD33 protein (His-CD33) (Homo sapiens (Human), UniProt P20138); experiment: Differential scanning fluorimetry (DSF) thermal shift assay; assay type: binding
[3] = biological target: Recombinant human CD33 protein (Homo sapiens (Human), UniProt P20138); experiment: CD33 competitive binding assay for HTS drug screen (fluorescent multivalent sialic acid probe)
Outline: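 Inhibition was read as reduced retention of a fluorescent multivalent sialic acid complex (final 5 μM neutravidin, 15 μM A-375, 5 μM biotin-4-FITC) on plate-immobilized human CD33. Compound was added first, the probe followed for 30 min at room temperature in PBS with 0.2% Tween-20 and 0.5% BSA, and FITC was measured after a wash.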

[4] = difference in thermal melt of CD33 protein (0.5 μM) with 50 μM compound
[5] = thermal melt shift of 0.5 μM CD33 protein with 50 μM compound

Sequence of Recombinant Human Siglec-3/CD33 protein (His-CD33) (P20138 18-259): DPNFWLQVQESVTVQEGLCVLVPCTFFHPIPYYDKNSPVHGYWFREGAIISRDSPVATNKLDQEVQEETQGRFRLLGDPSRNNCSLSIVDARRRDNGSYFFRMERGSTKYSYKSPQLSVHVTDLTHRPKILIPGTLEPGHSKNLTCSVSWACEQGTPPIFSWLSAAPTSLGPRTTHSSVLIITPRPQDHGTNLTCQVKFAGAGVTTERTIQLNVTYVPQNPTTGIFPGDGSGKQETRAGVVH
Sequence of Recombinant human CD33 protein (P20138 18-259): as above

SMILES | DSF (dTmD) [2, 4] [°C] | EC50 [3] [nM] | DSF (dTmD) [2, 5] | also measured
COC(=O)[C@]12CC=CCOC[C@@H](NC(=O)C3CCCOC3)COCCOc3c(C)cc(cc3C)C(=O)NC[C@@H](OC(C)=O)[C@@H](OC(C)=O)[C@H](O1)[C@H](NC(=O)OC(C)(C)C)[C@@H](OC(C)=O)C2 (stereo partly drawn) | – | – | – | ring closure, isolated yield ([1]; from C=CCOC[C@H](COCCOc1c(C)cc(C(=O)NC[C@@H](OC(C)=O)[C@@H](OC(C)=O)[C@@H]2O[C@@](CC=C)(C(=O)OC)C[C@H](OC(C)=O)[C@H]2NC(=O)OC(C)(C)C)cc1C)NC(=O)C1CCCOC1, 24-membered ring, Hoveyda-Grubbs II/quinone, 1.05 mM, 80.0 °C, 3.0 h): 60%
CC(=O)O[C@H]1[C@@H]2O[C@](C(=O)OCc3ccccc3)(CC=CCCCCC(=O)NCCCOc3c(C)cc(cc3C)C(=O)NC[C@H]1OC(C)=O)C[C@H](OC(C)=O)[C@H]2NC(=O)OC(C)(C)C | – | – | – | ring closure, isolated yield ([1]; from C=CCCCCC(=O)NCCCOc1c(C)cc(C(=O)NC[C@@H](OC(C)=O)[C@@H](OC(C)=O)[C@@H]2O[C@@](CC=C)(C(=O)OCc3ccccc3)C[C@H](OC(C)=O)[C@H]2NC(=O)OC(C)(C)C)cc1C, 25-membered ring, Hoveyda-Grubbs II, 2.15 mM, 90.0 °C, 0.58 h): 41%
COC(=O)[C@]12CC=CCOC[C@H]3C[C@H](CN3C(=O)C3CCCOC3)OCCOc3c(C)cc(cc3C)C(=O)NC[C@@H](OC(C)=O)[C@@H](OC(C)=O)[C@H](O1)[C@H](NC(=O)OC(C)(C)C)[C@@H](OC(C)=O)C2 (stereo partly drawn) | – | – | – | ring closure, isolated yield ([1]; from C=CCOC[C@H]1C[C@@H](OCCOc2c(C)cc(C(=O)NC[C@@H](OC(C)=O)[C@@H](OC(C)=O)[C@@H]3O[C@@](CC=C)(C(=O)OC)C[C@H](OC(C)=O)[C@H]3NC(=O)OC(C)(C)C)cc2C)CN1C(=O)C1CCCOC1, 25-membered ring, Hoveyda-Grubbs II/quinone, 1.03 mM, 90.0 °C, 24.0 h): 64%
COC(=O)[C@]12CC=CCCC[C@@H](NC(=O)C3CCCOC3)c3cccc(c3)COc3c(C)cc(cc3C)C(=O)NC[C@@H](OC(C)=O)[C@@H](OC(C)=O)[C@H](O1)[C@H](NC(=O)OC(C)(C)C)[C@@H](OC(C)=O)C2 (stereo partly drawn) | – | – | – | ring closure, isolated yield ([1]; from C=CCCC[C@@H](NC(=O)C1CCCOC1)c1cccc(COc2c(C)cc(C(=O)NC[C@@H](OC(C)=O)[C@@H](OC(C)=O)[C@@H]3O[C@@](CC=C)(C(=O)OC)C[C@H](OC(C)=O)[C@H]3NC(=O)OC(C)(C)C)cc2C)c1, 24-membered ring, Hoveyda-Grubbs II/quinone, 1.03 mM, 90.0 °C, 24.0 h): 71%
CC(=O)O[C@H]1[C@@H]2O[C@](C(=O)OCc3ccccc3)(CC=CCOC[C@@H](C)C(=O)NCCCOc3c(C)cc(cc3C)C(=O)NC[C@H]1OC(C)=O)C[C@H](OC(C)=O)[C@H]2NC(=O)OC(C)(C)C | – | – | – | ring closure, isolated yield ([1]; from C=CCOC[C@@H](C)C(=O)NCCCOc1c(C)cc(C(=O)NC[C@@H](OC(C)=O)[C@@H](OC(C)=O)[C@@H]2O[C@@](CC=C)(C(=O)OCc3ccccc3)C[C@H](OC(C)=O)[C@H]2NC(=O)OC(C)(C)C)cc1C, 25-membered ring, Hoveyda-Grubbs II (10 mol%)/1,4-benzoquinone, 1.52 mM, 80.0 °C, 1.0 h): 47%
COC(=O)[C@]12CC=Cc3cccc(c3)[C@@H](NC(=O)C3CCCOC3)CCCCOc3c(C)cc(cc3C)C(=O)NC[C@@H](OC(C)=O)[C@@H](OC(C)=O)[C@H](O1)[C@H](NC(=O)OC(C)(C)C)[C@@H](OC(C)=O)C2 (stereo partly drawn) | – | – | – | ring closure, isolated yield ([1]; from C=CC[C@]1(C(=O)OC)C[C@H](OC(C)=O)[C@@H](NC(=O)OC(C)(C)C)[C@H]([C@H](OC(C)=O)[C@@H](CNC(=O)c2cc(C)c(OCCCC[C@H](NC(=O)C3CCCOC3)c3cccc(C=C)c3)c(C)c2)OC(C)=O)O1, 24-membered ring, Hoveyda-Grubbs II/quinone, 1.02 mM, 80.0 °C, 1.0 h): 29%
CC(=O)N[C@H]1[C@H]([C@H](O)[C@H](O)CNC(=O)c2cc(C)c(O)c(C)c2)O[C@@](C/C=C/c2cccc(C3CCCN3C(=O)OC(C)(C)C)c2)(C(=O)O)C[C@@H]1O (stereo partly drawn) [A-295] | 4.0 | 6640 | – | –
Cc1cc(C(=O)NC[C@@H](O)[C@@H](O)[C@@H]2O[C@@](C/C=C/c3cccc(CNC(=O)C4CCCOC4)c3)(C(=O)O)C[C@H](O)[C@H]2NC(=O)Cn2cc(C3CCCCC3)nn2)cc(C)c1O (stereo partly drawn) [A-268] | 6.2 | 1320 | – | –
CC(=O)N[C@H]1[C@H]([C@H](O)[C@H](O)CNC(=O)c2cnc3[nH]nc(C)c3c2)O[C@@](CCN2CCOC[C@@]23CCN(C(=O)OC(C)(C)C)C3)(C(=O)O)C[C@@H]1O [A-127] | – | 59 | 11.7 | –
CC(=O)N[C@H]1[C@H]([C@H](O)[C@H](O)CNC(=O)c2cc(C)c(O)c(C)c2)O[C@@](CCN2CCOC[C@@]23CCN(C(=O)c2ccc(C)cc2)C3)(C(=O)O)C[C@@H]1O [A-099] | – | 342 | 7.3 | –
Cc1cc(C(=O)NC[C@@H](O)[C@@H](O)[C@@H]2O[C@@](C/C=C/c3cccc(CNC(=O)C4CCOCC4)c3)(C(=O)O)C[C@H](O)[C@H]2NC(=O)Cn2cc(C3CCCCC3)nn2)cc(C)c1O [A-261] | 4.4 | 1440 | – | –
CC(=O)N[C@H]1[C@H]([C@H](O)[C@H](O)CNC(=O)c2cc(C)c(O)c(C)c2)O[C@@](C/C=C/c2cccc(CNC(=O)c3ccc4[nH]c(C)c(C)c4c3)c2)(C(=O)O)C[C@@H]1O [A-238] | 9.2 | 347 | – | –
CC(=O)NC1[C@H]([C@H](O)[C@H](O)CNC(=O)c2cc(C)c(O)c(C)c2)O[C@@](CC(=O)N2CCOC[C@@]23CCN(C(=O)NC(C)(C)C)C3)(C(=O)O)C[C@@H]1O (stereo partly drawn) [A-223] | 8.9 | 123 | – | –
CC(=O)N[C@H]1[C@H]([C@H](O)[C@H](O)CNC(=O)c2cc(C)c(O)c(C)c2)O[C@@](CCN2CCOC[C@@]23CCN(C(=O)C2(C(F)(F)F)CCCCC2)C3)(C(=O)O)C[C@@H]1O [A-102] | – | 397 | 7.5 | –
COc1ccc(C(=O)NC[C@@H](O)[C@@H](O)[C@@H]2O[C@@](CCN3CCOC[C@@]34CCN(C(=O)OC(C)(C)C)C4)(C(=O)O)C[C@H](O)[C@H]2NC(C)=O)cc1OC [A-120] | – | 40 | 12.2 | –
CC(=O)N[C@H]1[C@H]([C@H](O)[C@H](O)CNC(=O)c2cc(C)c(O)c(C)c2)O[C@@](CCN2CCN(C(C)=O)C[C@]23CCN(C(=O)OC(C)(C)C)C3)(C(=O)O)C[C@@H]1O [A-015] | – | 3340 | 3.8 | –
CC(=O)N[C@H]1[C@H]([C@H](O)[C@H](O)CNC(=O)c2cc(C)c(O)c(C)c2)O[C@@](C/C=C/c2cccc(CNC(=O)c3ccc4[nH]c(CCO)cc4c3)c2)(C(=O)O)C[C@@H]1O [A-248] | 6.0 | 682 | – | –
CC(=O)N[C@H]1[C@H]([C@H](O)[C@H](O)CNC(=O)c2ccccc2)O[C@@](CCN2CCOC[C@@]23CCN(C(=O)OC(C)(C)C)C3)(C(=O)O)C[C@@H]1O [A-187] | – | 1010 | 6.8 | –
CC(=O)N[C@H]1[C@H]([C@H](O)[C@H](O)CNC(=O)c2cc3ncccn3n2)O[C@@](CCN2CCOC[C@@]23CCN(C(=O)OC(C)(C)C)C3)(C(=O)O)C[C@@H]1O [A-122] | – | 32 | 12.4 | –
CC(=O)N[C@H]1[C@H]([C@H](O)[C@H](O)CNC(=O)c2cc(C)c(O)c(C)c2)O[C@@](CCN2CCOC[C@@]23CCN(C(=O)N(C)C(C)C)C3)(C(=O)O)C[C@@H]1O [A-061] | – | 235 | 7.5 | –
Cc1cc(C(=O)NC[C@@H](O)[C@@H](O)[C@@H]2O[C@@](OCCOCCNC(=O)OCc3ccccc3)(C(=O)O)C[C@H](O)[C@H]2NC(=O)Cn2cc(C3CCCCC3)nn2)cc(C)c1O [A-323] | 4.4 | 10900 | – | –
Cc1cc(C(=O)NC[C@@H](O)[C@@H](O)[C@@H]2O[C@@](C/C=C/c3cccc(CNC(=O)C4CCCOC4)c3)(C(=O)O)C[C@H](O)[C@H]2NC(=O)Cn2cc(C3CCCCC3)nn2)cc(C)c1O (stereo partly drawn) [A-260] | 4.2 | 7940 | – | –
CC(=O)N[C@H]1[C@H]2O[C@](C(=O)O)(C/C=C/c3cccc(c3)[C@@H](NC(=O)[C@@H]3CCCOC3)CCCCOc3c(C)cc(cc3C)C(=O)NC[C@@H](O)[C@H]2O)C[C@@H]1O [A-349] | 5.5 | 5240 | – | –
CC(=O)N[C@H]1[C@H]([C@H](O)[C@H](O)CNC(=O)c2cc(C)c(O)c(C)c2)O[C@@](CC2OC(C)(C)O[C@H]2c2cccc(NC(=O)OC(C)(C)C)c2)(C(=O)O)C[C@@H]1O (stereo partly drawn) [A-296] | 6.4 | 477 | – | –
CC(=O)N[C@H]1[C@H]([C@H](O)[C@H](O)CNC(=O)c2cc(C)c(O)c(C)c2)O[C@@](CCN2CCOC[C@@]23CCN(C(=O)OC(C)(C)C)C3)(c2nn[nH]n2)C[C@@H]1O [A-363] | 2.6 | 6360 | – | –
Cc1cc(C(=O)NC[C@@H](O)[C@@H](O)[C@@H]2O[C@@](C/C=C/c3cccc(CNC(=O)c4ccc5[nH]cnc5c4)c3)(C(=O)O)C[C@H](O)[C@H]2NC(=O)Cn2cc(C3CCCCC3)nn2)cc(C)c1O [A-280] | 3.8 | 4900 | – | –
CC(=O)N[C@H]1[C@H]([C@H](O)[C@H](O)CNC(=O)c2cc(C)c(O)c(C)c2)O[C@@](CCN2CCN(C)C[C@]23CCN(C(=O)OC(C)(C)C)C3)(C(=O)O)C[C@@H]1O [A-011] | – | 1630 | 3.9 | –
